According to patent publication US4401660A, “Ester derivatives of 5-O-mycaminosyl tylonolide and method of using same” (Eli Lilly and Company, priority 1981, dated 1983):

Key:
[1] = system: Streptococcus sp. 80; assay: MIC, broth-dilution microtiter test (Table III); type: cell-based; set-up: unit not given here
Description: (§1) The MIC's in Table II were determined by standard agar-dilution assays. The MIC's in Table III were obtained using a conventional broth-dilution microtiter test.

[2] = system: Mycoplasma synoviae; assay: MIC, broth-dilution microtiter test (Table III); type: cell-based; set-up: unit not given here
Description: as §1

[3] = system: Mycoplasma gallisepticum; assay: MIC, broth-dilution microtiter test (Table III); type: cell-based; set-up: unit not given here
Description: as §1

[4] = system: Pasteurella multocida 60A; assay: MIC, broth-dilution microtiter test (Table III); type: cell-based; set-up: unit not given here; conditions: avian isolate
Description: as §1

[5] = system: Pasteurella multocida 17E; assay: MIC, broth-dilution microtiter test (Table III); type: cell-based; set-up: unit not given here; conditions: bovine isolate
Description: as §1

[6] = system: Staphylococcus aureus; assay: MIC, broth-dilution microtiter test (Table III); type: cell-based; set-up: unit not given here
Description: as §1

[7] = system: Mycoplasma hyorhinis; assay: MIC, broth-dilution microtiter test (Table III); type: cell-based; set-up: unit not given here
Description: as §1

[8] = system: Haemophilus influenzae Holt; assay: MIC, standard agar-dilution assay (Table II); type: cell-based; set-up: unit not given here; conditions: ampicillin-sensitive strain
Description: as §1

[9] = system: Staphylococcus aureus V41; assay: MIC, standard agar-dilution assay (Table II); type: cell-based; set-up: unit not given here; conditions: Staphylococcus aureus V41, penicillin-resistant strain
Description: as §1

[10] = system: Staphylococcus epidermidis EPI1; assay: MIC, standard agar-dilution assay (Table II); type: cell-based; set-up: unit not given here
Description: as §1

[11] = system: Staphylococcus aureus S13E; assay: MIC, standard agar-dilution assay (Table II); type: cell-based; set-up: unit not given here
Description: as §1

[12] = system: Streptococcus Group D 9960; assay: MIC, standard agar-dilution assay (Table II); type: cell-based; set-up: unit not given here
Description: as §1

[13] = system: Staphylococcus aureus X1.1; assay: MIC, standard agar-dilution assay (Table II); type: cell-based; set-up: unit not given here
Description: as §1

[14] = system: Streptococcus pneumoniae Park I; assay: MIC, standard agar-dilution assay (Table II); type: cell-based; set-up: unit not given here
Description: as §1

[15] = system: Staphylococcus aureus X400; assay: MIC, standard agar-dilution assay (Table II); type: cell-based; set-up: unit not given here; conditions: Staphylococcus aureus X400, methicillin-resistant strain
Description: as §1

[16] = system: Staphylococcus epidermidis EPI2; assay: MIC, standard agar-dilution assay (Table II); type: cell-based; set-up: unit not given here
Description: as §1

[17] = system: Streptococcus Group D X66; assay: MIC, standard agar-dilution assay (Table II); type: cell-based; set-up: unit not given here
Description: as §1

[18] = system: Streptococcus pyogenes C203; assay: MIC, standard agar-dilution assay (Table II); type: cell-based; set-up: unit not given here
Description: as §1

[19] = system: Haemophilus influenzae R252; assay: MIC, standard agar-dilution assay (Table II); type: cell-based; set-up: unit not given here; conditions: Haemophilus influenzae R252, ampicillin-resistant strain
Description: as §1

[20] = system: Pasteurella multocida; assay: Treatment of Pasteurella infections in chicks (Table V); type: in vivo, one-day-old chicks; conditions: Pasteurella multocida, sc, 4 h; 30 mg/kg by subcutaneous injection one and four hours post challenge; read-out: Deaths in Treated Chicks/Number Treated (converted)
Description: Certain OMT ester derivatives are active in vivo against Pasteurella infections. Table V summarizes the results of tests in which the ester derivatives were administered to one-day-old chicks at a dosage level of 30 mg/kg by subcutaneous injection one and four hours post challenge of the chicks with Pasteurella multocida (0.1 ml of a 10^-3 dilution of a 20-hour tryptose broth culture of avian P. multocida given subcutaneously). All nonmedicated infected chicks (ten in each control group) died within 24 hours of Pasteurella challenge.

[21] = system: Pasteurella haemolytica 23C; assay: MIC, broth-dilution microtiter test (Table III); type: cell-based; set-up: unit not given here
Description: as §1

[22] = system: Pasteurella multocida 68C; assay: MIC, broth-dilution microtiter test (Table III); type: cell-based; set-up: unit not given here
Description: as §1

[23] = system: Pasteurella haemolytica 22C; assay: MIC, broth-dilution microtiter test (Table III); type: cell-based; set-up: unit not given here
Description: as §1

[24] = system: Pasteurella haemolytica 41D; assay: MIC, broth-dilution microtiter test (Table III); type: cell-based; set-up: unit not given here
Description: as §1

[25] = system: Pasteurella multocida 22A; assay: MIC, broth-dilution microtiter test (Table III); type: cell-based; set-up: unit not given here
Description: as §1

| Structure (SMILES) | minimal inhibitory concentration (MIC) [1] | minimal inhibitory concentration (MIC) [2] | minimal inhibitory concentration (MIC) [3] | minimal inhibitory concentration (MIC) [4] | minimal inhibitory concentration (MIC) [5] | minimal inhibitory concentration (MIC) [6] | minimal inhibitory concentration (MIC) [7] | minimal inhibitory concentration (MIC) [8] | minimal inhibitory concentration (MIC) [9] | minimal inhibitory concentration (MIC) [10] | minimal inhibitory concentration (MIC) [11] | minimal inhibitory concentration (MIC) [12] | minimal inhibitory concentration (MIC) [13] | minimal inhibitory concentration (MIC) [14] | minimal inhibitory concentration (MIC) [15] | minimal inhibitory concentration (MIC) [16] | minimal inhibitory concentration (MIC) [17] | minimal inhibitory concentration (MIC) [18] | minimal inhibitory concentration (MIC) [19] | mortality at 30 mg/kg [20] [%] | also measured |
| --- | --- | --- | --- | --- | --- | --- | --- | --- | --- | --- | --- | --- | --- | --- | --- | --- | --- | --- | --- | --- | --- |
| CCC1OC(=O)CC(O)C(C)C(OC2OC(C)C(OC(C)=O)C(N(C)C)C2OC(C)=O)C(CC=O)CC(C)C(=O)C=CC(C)=CC1COC(=O)CC(C)C (stereo not shown) [Compound 21, 2',4'-Di-O-acetyl-23-O-i-valeryl-OMT] | 0.195 | < 0.05 | < 0.05 | 1.56 | 1.56 | 0.39 | 0.78 | 2 | 0.5 | 0.5 | 0.5 | 0.5 | 0.5 | 0.5 | 1 | 0.5 | 0.5 | 0.5 | 8 | 100 |  |
| CCCCC(=O)OCC1C=C(C)C=CC(=O)C(C)CC(CC=O)C(OC2OC(C)C(OC(C)=O)C(N(C)C)C2OC(C)=O)C(C)C(O)CC(=O)OC1CC (stereo not shown) [Compound 19] | < 0.05 | < 0.05 | < 0.05 | 3.12 | 1.56 | 0.39 | 6.25 | 2 | 0.25 | 0.125 | 0.25 | 0.5 | 0.25 | 0.03 | 0.5 | 0.125 | 0.5 | 0.25 | 2 | 100 |  |
| CCC1OC(=O)CC(O)C(C)C(OC2OC(C)C(OC(C)=O)C(N(C)C)C2OC(C)=O)C(CC=O)CC(C)C(=O)C=CC(C)=CC1COC(=O)C(C)C (stereo not shown) [Compound 17] | < 0.05 | < 0.05 | < 0.05 | 3.12 | 1.56 | 0.195 | 0.39 | 4 | 1 | 0.5 | 1 | 1 | 1 | 0.25 | 1 | 1 | 1 | 1 | 4 | 100 |  |
| CCCCC(=O)OCC1C=C(C)C=CC(=O)C(C)CC(CC=O)C(OC2OC(C)C(O)C(N(C)C)C2O)C(C)C(O)CC(=O)OC1CC (stereo not shown) [Compound 20] | 0.39 | < 0.05 | < 0.05 | 3.12 | 1.56 | 0.39 | 3.12 | 2 | 0.25 | 0.25 | 0.25 | 0.5 | 0.25 | 0.06 | 0.5 | 0.25 | 0.5 | 0.25 | 2 | 0 |  |
| CCC1OC(=O)CC(O)C(C)C(OC2OC(C)C(OC(C)=O)C(N(C)C)C2OC(C)=O)C(CC=O)CC(C)C(=O)C=CC(C)=CC1COS(C)(=O)=O (stereo not shown) [Compound 45] | 0.195 | 0.39 | 0.39 | 1.56 | 3.12 | 0.78 | 3.12 |  | 2 | 0.5 | 1 | 1 | 1 |  | 2 | 2 | 1 |  |  | 100 | minimal inhibitory concentration (MIC) [21]: 3.12; minimal inhibitory concentration (MIC) [22]: 1.56; minimal inhibitory concentration (MIC) [23]: 6.25; minimal inhibitory concentration (MIC) [24]: 6.25; minimal inhibitory concentration (MIC) [25]: 3.12 |
| CCC1OC(=O)CC(O)C(C)C(OC2OC(C)C(O)C(N(C)C)C2O)C(CC=O)CC(C)C(=O)C=CC(C)=CC1COC(=O)C(C)C (stereo not shown) [Compound 18] | 0.195 | < 0.05 | < 0.05 | 3.12 | 1.56 | 0.78 | 0.39 | 2 | 0.5 | 0.25 | 0.25 | 0.5 | 0.25 | 0.25 | 0.5 | 0.5 | 0.5 | 0.5 | 4 | 0 |  |
| CCCCCCCC(=O)OCC1C=C(C)C=CC(=O)C(C)CC(CC=O)C(OC2OC(C)C(O)C(N(C)C)C2OC(C)=O)C(C)C(O)CC(=O)OC1CC (stereo not shown) [Compound 25] | 0.195 | 1.56 | < 0.05 | 6.25 | 6.25 | 0.097 | 0.78 |  | 0.25 | 0.25 | 0.25 | 0.5 | 0.25 |  | 0.5 | 0.5 | 1 |  |  | 100 | minimal inhibitory concentration (MIC) [21]: 12.5; minimal inhibitory concentration (MIC) [22]: 6.25; minimal inhibitory concentration (MIC) [23]: 12.5; minimal inhibitory concentration (MIC) [24]: 12.5; minimal inhibitory concentration (MIC) [25]: 25 |
